Test results: patent US20040014696A1, “Specificity in treatment of diseases” (priority 2003, published 2004)

How the values were obtained:
[1] = Toxicity findings (hemolytic anemia, RBCs) in Rhesus monkeys; settings: 60 mg/kg followed by 30 mg/kg*day for 10 days
[2] = Liver radioactivity in mice after repeated oral dosing; format: in vivo; settings: oral 300 mg/kg daily for 8 days; for Total Liver Radioactivity: Cmin in liver; for Modified Ribavirin in liver: analyte modified Ribavirin
[3] = RBC radioactivity in portal vein-cannulated cynomolgus monkeys; settings: for Medium RBC Radioactivity (Monkeys - multiple doses) / Medium RBC Radioactivity (Monkeys - single dose) / Time to peak radioactivity concentration in RBC: cynomolgus monkeys; for Medium RBC Radioactivity (Monkeys - multiple doses): projected steady state; for Medium RBC Radioactivity (Monkeys - single dose) / Time to peak radioactivity concentration in RBC: single oral dose 30 mg/kg
[4] = RBC radioactivity in mice after repeated oral dosing; format: in vivo; settings: oral 300 mg/kg daily for 8 days; for Medium RBC Radioactivity (Mice): Cmin in RBCs
[5] = biological target: T1, Adenosine deaminase (ADA) (Bos taurus, UniProt P56658); assay: In vitro deamination by adenosine deaminase (UV 240 nm, mass spectrum); format: biochemical, calf; settings: 0.2 mM compound with 0.5 μM ADA overnight, mass spectrum analysis
T1 construct: Adenosine deaminase (ADA) isolated from calf intestine; purchased Boehringer Mannheim; host or cells: calf intestine (tissue-isolated)
T1 sequence (P56658 1-363): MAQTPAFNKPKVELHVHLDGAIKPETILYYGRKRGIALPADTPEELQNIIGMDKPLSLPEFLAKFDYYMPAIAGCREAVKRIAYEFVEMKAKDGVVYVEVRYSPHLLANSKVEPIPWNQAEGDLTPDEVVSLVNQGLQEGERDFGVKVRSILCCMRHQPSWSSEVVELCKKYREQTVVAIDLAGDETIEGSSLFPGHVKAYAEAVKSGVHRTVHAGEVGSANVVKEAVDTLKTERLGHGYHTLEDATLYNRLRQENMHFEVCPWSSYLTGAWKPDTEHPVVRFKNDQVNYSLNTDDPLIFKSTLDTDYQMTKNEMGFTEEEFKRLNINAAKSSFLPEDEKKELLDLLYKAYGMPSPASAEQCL
Experimental: Adenosine deaminase (ADA) isolated from calf intestine was purchased from Boehringer Mannheim. The assay was performed in Dulbecco's PBS buffer (Na2HPO4, 8 mM; […] KCl, 2.7 mM; NaCl, 138 mM; pH 7.2) at room temperature (23° C.). […] Taking the limit of the UV assay method, the spontaneous hydrolysis of viramidine will be less than 2.5×10^−5 min^−1. […] The enzyme turnover number was estimated about 2.5 min^−1 at the current assay condition.

RBCs = assay: In vitro transport into RBCs; format: cell-based; settings: in vitro studies (data not shown)
[6] = Liver radioactivity estimated from portal vs systemic plasma in portal vein-cannulated monkeys; format: in vivo
[7] = Spontaneous hydrolysis in Dulbecco's PBS buffer without enzyme; format: physicochemical
Experimental: Adenosine deaminase (ADA) isolated from calf intestine was purchased from Boehringer Mannheim. The assay was performed in Dulbecco's PBS buffer (Na2HPO4, 8 mM; […] KCl, 2.7 mM; NaCl, 138 mM; pH 7.2) at room temperature (23° C.). […] Taking the limit of the UV assay method, the spontaneous hydrolysis of viramidine will be less than 2.5×10^−5 min^−1.

erythrocytes = assay: Phosphorylation in erythrocytes; format: cell-based
From the text: For example, the selectivity of the pharmacological effect of 1-beta-D-ribofuranosyl-1,2,4-triazole-3-carboxamide (Ribavirin, Structure 1) is increased by covalently coupling an ═NH group to Ribavirin to form a carboxamidine group. Ribavirin is known to have antiviral properties in hepatitis virus-infected hepatocytes (e.g., see review Marcellin, P. and Benhamou J.; Treatment of chronic viral hepatitis, Baillieres Clin Gastroenteol 1994 June; 8(2):233-53). It is also known, that Ribavirin is readily phosphorylated in erythrocytes to the pharmacologically active form Ribavirin-phosphate at a significant rate (e.g., Homma, M. et al. High-performance liquid chromatographic determination of Ribavirin in whole blood to assess disposition in erythrocytes; Antimicrob Agents Chemother 1999 November; 43(11):2716-9), which reduces the selective pharmacological effect.

| Compound | Toxicity findings on RBCs [1] | Total Liver Radioactivity [2] | Radioactivity concentration Cmin in the liver, comparison ([2]; Ribavirin compared to modified Ribavirin) | Modified Ribavirin in liver [2] | Medium RBC Radioactivity (Monkeys - multiple doses) ([3]; multiple dosing at 30 mg/kg) | Medium RBC Radioactivity (Monkeys - single dose) [3] | Time to peak radioactivity concentration in RBC [3] | Projected steady-state RBC radioactivity concentrations, comparison ([3]; multiple dosing at 30 mg/kg, Ribavirin compared to modified Ribavirin) | Medium RBC Radioactivity (Mice) [4] | Conversion to Ribavirin [5] | Transport into RBCs (RBCs) | RBC radioactivity as compared to Ribavirin ([6]; monkeys) | Liver radioactivity concentration, higher than after oral dosing of Ribavirin ([6]; portal vein-cannulated monkeys, oral administration) | Share of liver radioactivity accounted for by modified Ribavirin [2] | RTCA in liver ([2]; analyte RTCA) | Spontaneous hydrolysis rate ([7]; limit of the UV assay method, pH 7.2) | Spontaneous hydrolysis in buffer ([7]; no enzyme, pH 7.2, 1.5 h, 23° C.) | Effect of zinc ion on spontaneous hydrolysis rate ([7]; zinc ion added to the buffer) | Radioactivity concentration Cmin in RBCs, comparison ([4]; modified Ribavirin vs Ribavirin) | Phosphorylation in erythrocytes (erythrocytes) |
| --- | --- | --- | --- | --- | --- | --- | --- | --- | --- | --- | --- | --- | --- | --- | --- | --- | --- | --- | --- | --- |
| NC(=O)c1ncn([C@@H]2O[C@H](CO)[C@@H](O)[C@H]2O)n1 [Ribavirin, 1-beta-D-ribofuranosyl-1,2,4-triazole-3-carboxamide, reference compound] | suffered from hemolytic anemia and significant decrease in RBCs | 18.4 μg equiv/g | significantly lower | not detected | ˜5089 μg equiv/g | ˜41 μg equiv/g | 24 h | significantly higher | 1.36 μg equiv/g |  |  |  |  |  |  |  |  |  |  |  |
| N=C(N)c1ncn([C@@H]2O[C@H](CO)[C@@H](O)[C@H]2O)n1 [modified Ribavirin, 1-beta-D-ribofuranosyl-1,2,4-triazole-3-carboxamidine] | no significant changes in RBCs | 23.8 μg equiv/g |  | ˜7.2 μg eguiv/g μg equiv/g | ˜606 μg equiv/g | ˜17 μg equiv/g | 24 h |  | 0.38 μg equiv/g | more than 75% | not directly transported into RBCs | ~12% | approximately 50% | about 30% | not detected | less than 2.5×10^−5 min^−1 | no spontaneous hydrolysis | does not enhance the spontaneous hydrolysis rate | significantly lower | is not, or is only insignificantly phosphorylated in erythrocytes |
